Non-standard residues stand in square brackets, D forms with d. Residues, ends and D or L forms follow the SMILES beside them. *: point of attachment. Ala(7-MeO-coumarin-4-yl) = COc1ccc2c(C[C@H](N)C(=O)O)cc(=O)oc2c1; X1 = N[C@@H](Cc1ccc(O)cc1)C(=S)N1CCC[C@H]1C(=O)*
Molecular target: T1, DPP-4 (Homo sapiens, UniProt P27487)
T1 construct: purchased Sigma Aldrich D3446
Assay: DPP-4 proteolysis steady state fluorescence assay with μ-tagged probes
Type: in vitro ADME
Settings: 5 μM peptide, 2.31 ng/μL DPP-4, DPBS pH 7.6, 27 °C, fluorescence λex 325 nm / λem 390 nm, average of three replicates
Procedure: Phan et al. Supporting Information
4. DPP-4 Proteolysis Assays (Steady State Assays)
A 19 μL solution of 5.3 μM peptide was incubated in the absence or presence of 1 μL of 46.2 ng/μL DPP-4 (Sigma Aldrich, D3446), to final concentrations of 5 μM peptide and 2.31 ng/μL […]
For the PP-based probes (APLEPμ & ASPLEPμ), […]
additional assays were conducted at higher DPP-4 concentration of 4.62 ng/μL to improve the cleavage rate and kinetics of the thioamide probes (Figure S17B). For the μ-tagged probes, the […]
nm on the Tecan M1000 plate reader. Three replicates were performed for each assay to ensure reproducibility. These primary data are shown. At the end of the plate-reader assay, the sample was diluted to a final volume of 170 μL for validation with HPLC. MALDI MS & HPLC analysis of peptide proteolysis by DPP-4 were also done to confirm the cleavage sites, indicated by the slashes (e.g. YP/SKPµ) as summarized in Figures S14-S17, and Tables S4-S7. A Phenomenex Luna® Omega 5 µm PS C18 100 Å analytical HPLC column was used to analyze all samples using the same gradient of 20-25 % B over 35 minutes (Solvent A: 0.1% TFA in Milli-Q water; Solvent B: 0.1% TFA in acetonitrile).

T1 sequence (P27487 whole entry): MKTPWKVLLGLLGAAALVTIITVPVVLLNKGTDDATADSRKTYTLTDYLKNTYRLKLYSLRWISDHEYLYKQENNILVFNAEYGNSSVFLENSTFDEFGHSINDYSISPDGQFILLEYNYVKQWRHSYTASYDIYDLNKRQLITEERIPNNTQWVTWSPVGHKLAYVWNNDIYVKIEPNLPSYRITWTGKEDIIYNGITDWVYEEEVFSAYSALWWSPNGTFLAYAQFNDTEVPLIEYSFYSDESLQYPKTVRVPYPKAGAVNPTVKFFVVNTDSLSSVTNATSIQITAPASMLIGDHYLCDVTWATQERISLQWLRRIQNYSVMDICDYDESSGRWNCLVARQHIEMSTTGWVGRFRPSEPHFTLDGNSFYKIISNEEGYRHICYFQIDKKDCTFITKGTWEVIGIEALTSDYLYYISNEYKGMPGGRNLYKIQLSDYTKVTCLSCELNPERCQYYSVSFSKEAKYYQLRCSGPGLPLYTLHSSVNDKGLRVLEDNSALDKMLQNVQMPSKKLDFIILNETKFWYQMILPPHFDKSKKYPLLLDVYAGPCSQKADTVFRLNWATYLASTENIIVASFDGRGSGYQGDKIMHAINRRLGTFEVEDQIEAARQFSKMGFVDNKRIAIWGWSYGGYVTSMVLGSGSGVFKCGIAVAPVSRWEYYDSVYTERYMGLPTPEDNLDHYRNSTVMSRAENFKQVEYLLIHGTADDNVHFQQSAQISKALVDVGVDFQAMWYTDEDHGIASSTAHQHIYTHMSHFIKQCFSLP

| t1/2 of cleavage by DPP-4 (μ-labeled probe) [min] | Compound |
| --- | --- |
| 26 | COc1ccc2c(C[C@H](NC(=O)[C@@H]3CCCN3C(=O)[C@H](CCCCN)NC(=O)[C@H](CO)NC(=O)[C@@H]3CCCN3C(=S)[C@@H](N)Cc3ccc(O)cc3)C(=O)O)cc(=O)oc2c1 [Y^sPSKPμ] (X1-SKP[Ala(7-MeO-coumarin-4-yl)]-OH) |

Same assay, conditions: 5 μM peptide, 2.31 ng/μL DPP-4, DPBS pH 7.6, 27 °C, fluorescence λex 325 nm / λem 390 nm, three replicates

| cleaved fold slower than the native NPY1–5 probe Y^SPSKPμ [fold] | Compound |
| --- | --- |
| 3 | CC[C@H](C)[C@H](NC(=O)[C@@H]1CCCN1C(=S)[C@@H](N)Cc1ccc(O)cc1)C(=O)N[C@@H](CCCCN)C(=O)N1CCC[C@H]1C(=O)N[C@@H](Cc1cc(=O)oc2cc(OC)ccc12)C(=O)O [Y^SPIKPμ] (X1-IKP[Ala(7-MeO-coumarin-4-yl)]-OH) |
| 2 | COc1ccc2c(C[C@H](NC(=O)[C@@H]3CCCN3C(=O)[C@H](CCCCN)NC(=O)[C@H](CC(C)C)NC(=O)[C@@H]3CCCN3C(=S)[C@@H](N)Cc3ccc(O)cc3)C(=O)O)cc(=O)oc2c1 [Y^SPLKPμ] (X1-LKP[Ala(7-MeO-coumarin-4-yl)]-OH) |

Test system: DPP-4 (dipeptidyl Peptidase IV human, recombinant, expressed in Sf9 cells)
Assay: 2.31 ng/μL DPP-4 in DPBS buffer and pH 7.6 (PP-based probes also 4.62 ng/μL)
Settings: 27°C, up to 400 min

| Compound | cleaved bond |
| --- | --- |
| A^SPLEPμ | P-L |
| YPIKPμ | P-I |
| APLEPμ | P-L |
| YPSKPμ | P-S |

Next, values leading:

| cleaved bond | Compound |
| --- | --- |
| P-S | Y^SPSKPμ |
| P-L3 | YPLKPμ |
| P-I | Y^SPIKPμ |
| P-L3 | Y^SPLKPμ |

— publication PMC11497070 (Chemical Communications (Cambridge, England), 2024)
